Entries after “also recorded” stand apart in the source; their conditions may differ. Like-named read-outs stand apart in the source and are kept apart here.
What was measured:
[1] = test system: lung adenocarcinoma A549 cells; assay: MTT antiproliferative assay, A549; format: cell-based, human; details: read-out: IC50 A549
Protocol: (§1) The SGC-7901, A549 and HT-1080 cell lines were purchased from the American Type Culture Collection (ATCC, Manassas, VA, USA). […] Briefly, approximately 3 × 10^4 cells were seeded in a 96-well plate. After 24 h of incubation at 37 °C, cells were exposed to compounds of differing concentrations for 24 h. After treatment, cells were washed with 1X PBS followed by addition of 100 µL of 0.05% MTT reagent to each well, followed by incubation for 4 h at 37 °C. After incubation, the supernatant from each well was carefully removed and the formazan crystals were dissolved in 100 µL of DMSO. The colour density was measured spectrophotometrically at 490 nm using a microplate reader (SpectraMax Plus384, Molecular Devices Corp., USA). The data were calculated and plotted as percent viability compared to control.
as §1

[2] = test system: gastric adenocarcinoma SGC-7901 cells; assay: MTT antiproliferative assay, SGC-7901; format: cell-based, human; details: read-out: IC50 SGC-7901
Protocol: as §1, §1

[3] = test system: fibrosarcoma HT-1080 cells; assay: MTT antiproliferative assay, HT-1080; format: cell-based, human; details: read-out: IC50 HT-1080
Protocol: as §1, §1

[4] = test system: SGC-7901, A549 and HT-1080 cell lines; assay: MTT antiproliferative assay, span over the three cell lines; format: cell-based, human; details: for antiproliferative activity in words: SGC-7901, A549 and HT-1080; for IC50: read-out: IC50 range against the three human cancer cell lines
Protocol: as §1, §1

[5] = molecular target: T1, highly purified tubulin from porcine brain (Sus scrofa, UniProt P02554); assay: Tubulin polymerization assay; format: biochemical; details: CA-4 0.5-4 µM, 6i 0.1-8.0 µM, paclitaxel 5.0 µM, 37 °C
T1 construct: highly purified tubulin from porcine brain; purchased Cytoskeleton BK011P; host or cells: porcine brain (tissue-purified)
Protocol: This assay uses highly purified tubulin from porcine brain.
The reaction was monitored at 37 °C.
(§2) Tubulin polymerization assay[33] was conducted with reagents as described in the kit manufacturer (Cytoskeleton, Cat.#BK011P) in a 96-well plate. In brief, tubulin was re-suspended in ice-cold G-PEM buffer (80 mM PIPES, 2 mM MgCl2, 0.5 mM EGTA, 1 mM GTP, 20% (v/v) glycerol) and added to wells on a 96-well plate containing the designated concentration of drugs or vehicle. Samples were mixed well, and tubulin assembly was monitored (emission wavelength: 450 ± 20 nm; excitation wavelength: 360 ± 20 nm) at 1 min intervals for 90 min at 37 °C in a SpectraMax 340PC spectrophotometer (Biotek Synergy HT, Winooskin, VT, USA). IC50 values were calculated from data at the 20 min time point using GraphPad Prism software. Experiments were repeated three times.
as §2, with “assay” for “assay[33]”, “450±20” for “450 ± 20”, “360±20” for “360 ± 20”, “timepoint” for “time point”

HCT116 = test system: HCT116; set-up: method as in Org. Biomol. Chem. 2005, 3, 2657-2660; details: ref Org. Biomol. Chem. 2005, 3, 2657-2660; cited from earlier work
[6] = Homo sapiens, A549, MTT assay, 24 h exposure, triplicate
[7] = Homo sapiens, SGC-7901, MTT assay, 24 h exposure, triplicate
[8] = Homo sapiens, HT-1080, MTT assay, 24 h exposure, triplicate
[9] = MTT assay, 24 h exposure, triplicate

T1 sequence (P02554 whole entry): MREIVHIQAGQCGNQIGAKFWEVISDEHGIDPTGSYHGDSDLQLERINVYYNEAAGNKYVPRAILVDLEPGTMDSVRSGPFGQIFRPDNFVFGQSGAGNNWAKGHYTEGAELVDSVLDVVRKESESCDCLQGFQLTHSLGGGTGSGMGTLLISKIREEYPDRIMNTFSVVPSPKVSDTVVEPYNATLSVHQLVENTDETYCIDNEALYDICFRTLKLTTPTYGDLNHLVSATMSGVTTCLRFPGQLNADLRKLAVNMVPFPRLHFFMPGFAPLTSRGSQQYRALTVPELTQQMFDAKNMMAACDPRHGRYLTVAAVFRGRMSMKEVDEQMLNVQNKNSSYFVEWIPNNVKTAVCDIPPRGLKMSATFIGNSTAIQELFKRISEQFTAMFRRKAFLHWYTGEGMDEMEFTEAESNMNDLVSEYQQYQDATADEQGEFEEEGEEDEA
T1 sequence (P02550 whole entry partner): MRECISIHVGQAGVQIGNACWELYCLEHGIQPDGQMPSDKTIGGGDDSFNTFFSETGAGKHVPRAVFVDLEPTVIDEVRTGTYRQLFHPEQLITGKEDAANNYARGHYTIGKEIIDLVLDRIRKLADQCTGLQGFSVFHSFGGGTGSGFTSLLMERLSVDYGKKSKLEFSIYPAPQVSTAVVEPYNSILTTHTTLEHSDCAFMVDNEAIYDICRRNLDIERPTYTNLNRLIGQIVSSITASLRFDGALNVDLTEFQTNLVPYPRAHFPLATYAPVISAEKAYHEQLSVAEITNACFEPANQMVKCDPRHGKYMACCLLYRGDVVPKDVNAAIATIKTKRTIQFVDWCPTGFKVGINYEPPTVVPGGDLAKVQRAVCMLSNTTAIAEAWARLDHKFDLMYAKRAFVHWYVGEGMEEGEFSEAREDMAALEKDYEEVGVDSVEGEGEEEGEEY

| Compound | melting point [°C] | IC50 [1, 6] [µM] | IC50 [2, 7] [µM] | IC50 [3, 8] [µM] | antiproliferative activity in words ([4]; MTT assay) | other results |
| --- | --- | --- | --- | --- | --- | --- |
| COc1ccc(-c2nnc3n2N=C(c2ccc(C)cc2)CS3)c(OC)c1OC [Compound 4d, 3-(2,3,4-Trimethoxyphenyl)-6-(4-methyphenyl)-7H-[1,2,4]triazolo[3,4-b][1,3,4]thiadiazine] |  |  |  |  | IC50 values at the nanomolar level | IC50 [1, 9]: 0.073 µM; IC50 [2, 9]: 0.066 µM; IC50 [3, 9]: 0.028 µM; IC50 ([4]; range over SGC-7901, A549 and HT-1080, MTT assay): 0.028 to 0.073 µM |
| CC(=O)O[C@H]1C(=O)[C@@]2(C)[C@H]([C@H](OC(=O)c3ccccc3)[C@]3(O)C[C@H](OC(=O)[C@H](O)[C@@H](NC(=O)c4ccccc4)c4ccccc4)C(C)=C1C3(C)C)[C@]1(OC(C)=O)CO[C@@H]1C[C@@H]2O [paclitaxel, reference compound] |  |  |  |  |  | effect on tubulin polymerization in words [5]: could distinctly promoted this process |
| COc1ccc(C2=Nn3c(nnc3-c3ccc(OC)c(OC)c3OC)SC2)cc1N [Compound 4j, 3-(2,3,4-Trimethoxyphenyl)-6-(3-amino-4-methoxyphenyl)-7H-[1,2,4]triazolo[3,4-b][1,3,4]thiadiazine] | 93 to 94 |  |  |  | only moderate activity | IC50 ([1]; Homo sapiens, A549, 24 h): 1.58 µM; IC50 ([2]; Homo sapiens, SGC-7901, 24 h): 1.57 µM; IC50 ([3]; Homo sapiens, HT-1080, 24 h): 0.89 µM |
| COc1ccc(/C=C/C=C\c2cc(OC)c(OC)c(OC)c2)cc1O [vinylogous CA-4 (Z,E), vinylogous CA-4] |  |  |  |  |  | IC50 (HCT116): 0.163 µM |
| COc1ccc(C2=Nn3c(nnc3-c3cc(OC)c(OC)c(OC)c3)SC2)cc1O [Compound 5i, 3-(3,4,5-Trimethoxyphenyl)-6-(3-hydroxy-4-methoxyphenyl)-7H-[1,2,4]triazolo[3,4-b][1,3,4]thiadiazine] | 95 to 97 |  |  |  | IC50 values at the nanomolar level | IC50 ([1]; Homo sapiens, A549, 24 h): 0.071 µM; IC50 ([2]; Homo sapiens, SGC-7901, 24 h): 0.026 µM; IC50 ([3]; Homo sapiens, HT-1080, 24 h): 0.047 µM; IC50 ([4]; Homo sapiens): 0.026 to 0.071 µM |
| COc1ccc(C2=Nn3c(nnc3-c3ccc(OC)c(OC)c3OC)SC2)cc1O [Compound 4l, 3-(2,3,4-Trimethoxyphenyl)-6-(3-hydroxy-4-methoxyphenyl)-7H-[1,2,4]triazolo[3,4-b][1,3,4]thiadiazine] | 88 to 89 | 7.73 | 16.3 | 0.63 | only moderate activity |  |

Now from value to molecule, other results behind:

| melting point [°C] | IC50 [1, 6] [µM] | IC50 [2, 7] [µM] | IC50 [3, 8] [µM] | Compound | antiproliferative activity in words ([4]; MTT assay) | other results |
| --- | --- | --- | --- | --- | --- | --- |
| 85 to 87 | 0.079 | 0.037 | 0.035 | COc1ccc(C2=Nn3c(nnc3-c3ccc4c(c3)OCO4)SC2)cc1O [Compound 6e, 3-(3,4-Methylenedioxyphenyl)-6-(3-hydroxy-4-methoxyphenyl)-7H-[1,2,4]triazolo[3,4-b][1,3,4]thiadiazine] | nanomolar IC50 values against all tested cells; also recorded: IC50 values at the nanomolar level |  |
| 214 to 215 | 0.038 | 0.036 | 0.023 | COc1ccc(-c2nnc3n2N=C(c2ccc(OC)c(N)c2)CS3)cc1 [Compound 6k, 3-(4-Methoxyphenyl)-6-(3-amino-4-methoxyphenyl)-7H-[1,2,4]triazolo[3,4-b][1,3,4]thiadiazine] | nanomolar IC50 values against all tested cells; also recorded: IC50 values at the nanomolar level |  |
| 88 to 90 | 0.026 | 0.018 | 0.021 | COc1ccc(C2=Nn3c(nnc3-c3ccc4c(c3)OCO4)SC2)cc1N [Compound 6c, 3-(3,4-Methylenedioxyphenyl)-6-(3-amino-4-methoxyphenyl)-7H-[1,2,4]triazolo[3,4-b][1,3,4]thiadiazine] | nanomolar IC50 values against all tested cells; also recorded: IC50 values at the nanomolar level |  |
| 213 to 215 | 0.032 | 0.023 | 0.018 | COc1ccc(C2=Nn3c(nnc3-c3ccc(OC)c(OC)c3)SC2)cc1N [Compound 6g, 3-(3,4-Dimethoxyphenyl)-6-(3-amino-4-methoxyphenyl)-7H-[1,2,4]triazolo[3,4-b][1,3,4]thiadiazine] | IC50 values at the nanomolar level | antiproliferative activity in words ([4]; MTT assay, listed as 6 g): nanomolar IC50 values against all tested cells |
